System: NSC-34 cells
Experiment: NSC-34 cell differentiation into mature motor neurons
Format: cell-based

CC1=C(/C=C/C(C)=C/C=C/C(C)=C/C(=O)O)C(C)(C)CCC1 [RA, retinoic acid]
time to NSC-34 cell differentiation (1 μM RA): 14 days
time to NSC-34 cell differentiation (10 μM RA): 7 days

From patent US20250161395A1, “SPINAL CORD REGENERATION THERAPY” (MOLEAC PTE LTD., priority 2022, published 2025)
